Laboratory results: patent publication US4211772A, “Benzopyran glycoside acetals and ketals” (Laboratoires Sarget, priority 1977, dated 1980)
Values after ≈ are worked out from the molar mass of the structure shown. Read-outs that look alike come from different tables or passages of the source.

Key:
carragenin edema = test: Anti-inflammatory activity: carragenin edema test; assay type: in vivo; conditions: Rattus norvegicus, ip, substantially alkaline pH solution, read-out: % inhibition of carragenin edema; for inhibition in vivo at 100 mg/kg: 100 mg/kg i.p.; for inhibition in vivo at 200 mg/kg: 200 mg/kg i.p.; for inhibition in vivo at 300 mg/kg: 300 mg/kg i.p.; for inhibition in vivo at 150 mg/kg: 150 mg/kg i.p.
Description: Anti-inflammatory activity
This was determined by the carragenin edema test using male Wistar EOPS rats. Inflammation was induced by the injection of 0.1 ml of a suspension of 5% carragenin in physiological serum into the muscular bundle of the metatarsal region of the posterior paw of the animal. The test substance was administered i.p. in neutralized solution at the same time as the carragenin.
Edema was measured by plethysmometry at different times after the administration of the carragenin.
Tables IV and V show the percentages of inhibition as a function of time and of dosage for certain compounds of the present invention.
The above results were obtained for solutions of substantially alkaline
The reference experiments were performed using physiological serum brough
to a pH approximately the same as the pH of the solutions to be tested.

[1] = i.p. toxicity in Swiss EOPS mice, mortality at 14 days; conditions: mouse, in vivo, ip, DMSO solution at 1/2, read-out: percentages of mortality at the end of 14 days
Description: The i.p. toxicities of certain compounds of the present invention were determined using male and female Swiss EOPS mice for administrations in DMSO solution at 1/2 under a volume of P/100.

Aldose Reductase = target: T1, Aldose Reductase (Bos taurus, UniProt P16116); test: Inhibition of aldose reductase in vitro (enzyme from beef eye lenses, glyceraldehyde substrate); assay type: biochemical; conditions: in DMF solution, read-out: percentages of inhibition (aldose reductase); for inhibition at 100 µM: 10^-4 mole/l; for inhibition at 10 µM: 10^-5 mole/l
T1 construct: The enzyme is extracted from beef eye lenses; from tissue; host or cells: beef eye lenses
Text: Inhibition of Aldose Reductase In Vitro
The reoxidation of NADPH coupled to the enzymatic reaction was followed spectrophotometrically at 340 nm.

capillary resistance = test: Capillaroprotecting effects: capillary resistance; assay type: in vivo, male OFA EOPS rats
Description: (§1) Capillaroprotecting effects
The capillary resistance was determined by a variant of the method of Charlier et al, Arch. Inter. Physiol.

Solubilities in water = assay type: physicochemical; conditions: water; read-out: Solubilities in water
capillary permeability = test: Capillaroprotecting effects: capillary permeability; assay type: in vivo, conventional male Wistar rats
Description: as §1
The capillary permeability was determined by the method of Charlier et al, Arch. Inter. Physiol.

C[C@@H]1O[C@@H](O[C@H]2[C@H](Oc3cc(O)c4c(c3)OC(c3ccc(O)cc3)CC4=O)O[C@H](CO)[C@@H](O)[C@@H]2O)[C@@H]2OC(C)(C)O[C@@H]2[C@H]1O (stereo partly drawn) [No. 8, 7-O-(2,3-O,O-isopropylidene-2-α-L-rhamnosyl-β-D-glucosyl)-naringenin]
inhibition in vivo at 100 mg/kg (carragenin edema; 1/2 h): 23% | inhibition in vivo at 200 mg/kg (carragenin edema; 1/2 h): 9% | inhibition in vivo at 300 mg/kg (carragenin edema; 1/2 h): 62% | inhibition in vivo at 100 mg/kg (carragenin edema; 1 h, 1 h 1/2): 85% | inhibition in vivo at 100 mg/kg (carragenin edema; 1 h, 1 h): 64% | inhibition in vivo at 200 mg/kg (carragenin edema; 1 h, 1 h 1/2): 70% | inhibition in vivo at 200 mg/kg (carragenin edema; 1 h, 1 h): 42% | inhibition in vivo at 300 mg/kg (carragenin edema; 1 h, 1 h 1/2): 74% | inhibition in vivo at 300 mg/kg (carragenin edema; 1 h, 1 h): 78% | inhibition in vivo at 100 mg/kg (carragenin edema; 2 h, 2 h): 75% | inhibition in vivo at 200 mg/kg (carragenin edema; 2 h, 2 h): 60% | inhibition in vivo at 300 mg/kg (carragenin edema; 2 h, 2 h): 73% | inhibition in vivo at 100 mg/kg (carragenin edema; 3 h, 3 h): 48% | inhibition in vivo at 200 mg/kg (carragenin edema; 3 h, 3 h): 28% | inhibition in vivo at 300 mg/kg (carragenin edema; 3 h, 3 h): 50% | inhibition in vivo at 100 mg/kg (carragenin edema; 4 h, 4 h): 48% | inhibition in vivo at 200 mg/kg (carragenin edema; 4 h, 4 h): 27% | inhibition in vivo at 300 mg/kg (carragenin edema; 4 h, 4 h): 50% | inhibition in vivo at 100 mg/kg (carragenin edema; 5 h, 5 h): 35% | inhibition in vivo at 200 mg/kg (carragenin edema; 5 h, 5 h): 22% | inhibition in vivo at 300 mg/kg (carragenin edema; 5 h, 5 h): 33% | inhibition in vivo at 100 mg/kg (carragenin edema; 6 h, 6 h): 37% | inhibition in vivo at 200 mg/kg (carragenin edema; 6 h, 6 h): 24% | inhibition in vivo at 300 mg/kg (carragenin edema; 6 h, 6 h): 35% | mortality at 336 h ([1]; 500 mg/kg i.p.): 0% | mortality at 336 h ([1]; 1000 mg/kg i.p.): 0% | mortality at 336 h ([1]; 2000 mg/kg i.p.): 0% | inhibition at 100 µM (Aldose Reductase): 25% | inhibition at 10 µM (Aldose Reductase): 0%

CC1(C)OC[C@H]2O[C@@H](Oc3cc4ccc(=O)oc4cc3O)[C@H](O)[C@@H](O)[C@@H]2O1 [No. 15, 6-O-(4,6-O,O-isopropylidene-β-D-glucosyl) esculetol]
inhibition in vivo at 200 mg/kg (carragenin edema; 1/2 h): 18% | inhibition in vivo at 200 mg/kg (carragenin edema; 1 h, 1 h 1/2): 20% | inhibition in vivo at 200 mg/kg (carragenin edema; 1 h, 1 h): 26% | inhibition in vivo at 200 mg/kg (carragenin edema; 2 h, 2 h): 13% | inhibition in vivo at 200 mg/kg (carragenin edema; 3 h, 3 h): 1% | inhibition in vivo at 200 mg/kg (carragenin edema; 4 h, 4 h): 7% | inhibition in vivo at 200 mg/kg (carragenin edema; 5 h, 5 h): 10% | inhibition in vivo at 200 mg/kg (carragenin edema; 6 h, 6 h): 17% | mortality at 336 h ([1]; 500 mg/kg i.p.): 10% | mortality at 336 h ([1]; 1000 mg/kg i.p.): 0% | mortality at 336 h ([1]; 1500 mg/kg i.p.): 20% | mortality at 336 h ([1]; 2000 mg/kg i.p.): 70% | capillary resistance, effect observed (capillary resistance; 25 mg/kg i.p.): 17 ± 11.8 u cm Hg/h | capillary resistance, effect observed (capillary resistance; 50 mg/kg i.p.): 20 ± 12.9 u cm Hg/h | inhibition at 100 µM (Aldose Reductase): 60% | inhibition at 10 µM (Aldose Reductase): 9% | solubility (Solubilities in water): 9200 µg/mL (≈ 24.2 mM)

COc1ccc(-c2cc(=O)c3c(O)cc(O[C@@H]4O[C@H](CO[C@@H]5O[C@@H](C)[C@H](O)[C@H]6OC(C)(C)O[C@@H]56)[C@@H](O)[C@H](O)[C@H]4O)cc3o2)cc1O [No. 32, 7-O-(2,3-O,O-isopropylidene-6-α-L-rhamnosyl-β-D-glucosyl)diosmitin]
inhibition in vivo at 150 mg/kg (carragenin edema; 1/2 h): 5% | inhibition in vivo at 200 mg/kg (carragenin edema; 1/2 h): 8% | inhibition in vivo at 300 mg/kg (carragenin edema; 1/2 h): 0% | inhibition in vivo at 150 mg/kg (carragenin edema; 1 h, 1 h 1/2): 37% | inhibition in vivo at 150 mg/kg (carragenin edema; 1 h, 1 h): 17% | inhibition in vivo at 200 mg/kg (carragenin edema; 1 h, 1 h 1/2): 35% | inhibition in vivo at 200 mg/kg (carragenin edema; 1 h, 1 h): 16% | inhibition in vivo at 300 mg/kg (carragenin edema; 1 h, 1 h 1/2): 38% | inhibition in vivo at 300 mg/kg (carragenin edema; 1 h, 1 h): 8% | inhibition in vivo at 150 mg/kg (carragenin edema; 2 h, 2 h): 49% | inhibition in vivo at 200 mg/kg (carragenin edema; 2 h, 2 h): 43% | inhibition in vivo at 300 mg/kg (carragenin edema; 2 h, 2 h): 44% | inhibition in vivo at 150 mg/kg (carragenin edema; 3 h, 3 h): 43% | inhibition in vivo at 200 mg/kg (carragenin edema; 3 h, 3 h): 36% | inhibition in vivo at 300 mg/kg (carragenin edema; 3 h, 3 h): 31% | inhibition in vivo at 150 mg/kg (carragenin edema; 4 h, 4 h): 42% | inhibition in vivo at 200 mg/kg (carragenin edema; 4 h, 4 h): 30% | inhibition in vivo at 300 mg/kg (carragenin edema; 4 h, 4 h): 32% | inhibition in vivo at 150 mg/kg (carragenin edema; 5 h, 5 h): 37% | inhibition in vivo at 200 mg/kg (carragenin edema; 5 h, 5 h): 20% | inhibition in vivo at 300 mg/kg (carragenin edema; 5 h, 5 h): 43% | inhibition in vivo at 150 mg/kg (carragenin edema; 6 h, 6 h): 34% | inhibition in vivo at 200 mg/kg (carragenin edema; 6 h, 6 h): 20% | inhibition in vivo at 300 mg/kg (carragenin edema; 6 h, 6 h): 36% | percentage reduction of capillary permeability (capillary permeability; 10 mg/kg i.p.): 7% | percentage reduction of capillary permeability (capillary permeability; 75 mg/kg i.p.): 32% | mortality at 336 h ([1]; 1000 mg/kg i.p.): 0%
